In data set [1] the test system is Human Cytochrome P450. The data set can be described thus: Determination of first-pass effectiveness of furocoumarins (human cytochrome P450-mediated biotransformation, Protocol C / C'). It is filed as in vitro ADME. The protocol: The process of preparing incubation mixtures begins by mixing 10 uL of ethanol or an ethanolic solution containing an inhibitor with 100 uL of 100 mg/mL bovine serum albumin (Sigma) dissolved in reaction buffer at room temperature. Reaction buffer is composed of 0.10 M sodium phosphate, 1.0 mM ethylenediaminetetraacetic acid, and 5.0 mM magnesium chloride, pH 7.4 (all reagents: Fisher Scientific). Inhibitory chemicals used were ketoconazole (Research Diagnostics, Inc.), miconazole, bergapten, xanthotoxin (previous three from Sigma), bergamotin, imperatorin, isopimpinellin, psoralen, angelicin (previous five from Indofine Chemical Company, Inc.), and fractions or precipitates resulting from Protocols A, A', B, B', or B" above. When possible, final inhibitor concentrations were expressed in molarity by calculation from the weighed material or by interpolation from HPLC calibration curves prepared with reference materials; otherwise, concentrations are expressed as weight per volume. Reaction tubes are placed on ice in preparation for the manipulations that follow. Sufficient reaction buffer is added so that the final volume of each tube will be 500 uL, 5 uL of a 100-fold concentrate for generating reduced nicotinamide adenine dinucleotide phosphate is added (such that completed reaction mixture contains 1.0 mM nicotinamide adenine dinucleotide phosphate, 1 U/mL glucose-6-phosphate dehydrogenase, and 10 mM glucose-6-phosphate; all from Sigma), and then human hepatic S9 (Anatomic Gift Foundation) is thawed and added in sufficient amounts to cause readily detectable amounts of metabolites to be formed in control reactions (amount necessary varies among individuals, but 10 uL is typical).
The samples prepared above are readied for HPLC assessment using the protocol that follows. Each tube is vortex mixed and centrifuged for 10 min at setting 35, the resulting supernatant is transferred to a clean tube, and the liquid is evaporated using a Speed Vac apparatus. The residue in each tube is first dissolved in 40 uL 1:1 acetonitrile:water, 2.5 mL of acetonitrile is added, and the centrifuge-transfer-evaporate step just described is repeated.
Linear gradients are used for elution and are formed by mixing mobile phase A composed of water with mobile phase B composed of 0.025% (v/v) formic acid in acetonitrile (instrument: Hewlett Packard). The elution time, in minutes, the percentage of mobile phase B present in the mixed mobile phase, and the flow rate (mL/min) are as follows: 0, 10, 0.10; 2, 10, 0.10; 3.5, 10, 0.20; 4, 10, 0.25; 5, 10, 0.25; 30, 55, 0.25; 32, 98, 0.25; 33, 98, 0.40; 39.8, 98, 0.40; 40, 98, 0.25; 45, 10, 0.25; 45.25, 10, 0.20; 50, 10, 0.20; 50.25, 10, 0.10. The chromatographic column has dimensions of 150 mm length×2.1 mm internal diameter, is packed with a proprietary material (Prism, Keystone Scientific, Inc.), is protected with a 2 mm internal diameter column containing the same material and with a PTFE filter, and is maintained at 35+/-0.2° C. The dry sample residue is mixed with 60 uL of 1:1 acetonitrile:water followed by 40 uL water just prior to each 50.25 min run cycle. The column eluate from each 10 uL injection is monitored for fluorescence with excitation at 228 nm, emission at 291 nm, and bandpass filtration at 280 nm.
The process of preparing incubation mixtures begins by mixing 10 uL of ethanol (control reactions) or an ethanolic solution containing an inhibitor with 100 uL of 100 mg/mL bovine serum albumin (Sigma) dissolved in reaction buffer at room temperature. Reaction buffer is composed of 0.10 M sodium phosphate, 1.0 mM ethylenediaminetetraacetic acid, and 5.0 mM magnesium chloride, pH 7.4 (all reagents: Fisher Scientific). […] Final inhibitor concentrations were expressed in molarity by calculation from the weighed material or by use of Beer's law. Reaction tubes are placed on ice in preparation for the manipulations that follow. […]

For data set [2], the system named is Human Cytochrome P450. The data set can be described thus: Protocol C': generation of saquinavir metabolites by human hepatic S9 in the presence of inhibitor. It is filed as in vitro ADME. The protocol: The process of preparing incubation mixtures begins by mixing 10 uL of ethanol (control reactions) or an ethanolic solution containing an inhibitor with 100 uL of 100 mg/mL bovine serum albumin (Sigma) dissolved in reaction buffer at room temperature. Reaction buffer is composed of 0.10 M sodium phosphate, 1.0 mM ethylenediaminetetraacetic acid, and 5.0 mM magnesium chloride, pH 7.4 (all reagents: Fisher Scientific). […] Final inhibitor concentrations were expressed in molarity by calculation from the weighed material or by use of Beer's law. Reaction tubes are placed on ice in preparation for the manipulations that follow. Sufficient reaction buffer is added so that the final volume of each tube will be 500 uL, 5 uL of a 100-fold concentrate for generating reduced nicotinamide adenine dinucleotide phosphate is added (such that completed reaction mixture contains 1.0 mM nicotinamide adenine dinucleotide phosphate, 1 U/mL glucose-6-phosphate dehydrogenase, and 10 mM glucose-6-phosphate; all from Sigma), and then human hepatic S9 (Anatomic Gift Foundation) is thawed and added in sufficient amounts to cause readily detectable amounts of metabolites to be formed in control reactions (amount necessary varies among individuals, but 10 uL is typical). […]
The samples prepared above are readied for HPLC assessment using the protocol that follows. […]

For data set [3] the following is noted: in vivo; cited from earlier work.
Data set [4] concerns first-pass effect. The conditions noted are these: in vivo; cited from earlier work.
Data set [5] concerns first-pass effect. The conditions noted are these: inhibitors commonly given to humans; cited from earlier work.
A further data set relates to cytochrome P450. The conditions noted are these: given to humans in large doses; cited from earlier work.

Consider 17 molecules from US6124477A, “Anti-first-pass effect compounds” (priority 1997, dated 2000).

Where two headings read alike, the source gives them in different places.

Regarding `C/C(=C\COc1c2ccoc2cc2oc(=O)ccc12)CCC(O)C(C)(C)O` (stereo not drawn) [6', 7'-dihydroxybergamottin], the first-pass effect effectiveness entry in the data set on Human Cytochrome P450 [1] is given as “ineffective”.
As for `O=c1ccc2ccc3occc3c2o1` [angelicin], the first-pass effect effectiveness entry in the data set with Human Cytochrome P450 [1] (determined herein) is reported as “ineffective”.
Regarding `CC(C)=CCC/C(C)=C/COc1c2ccoc2cc2oc(=O)ccc12` [bergamottin], the “first-pass inhibition (saquinavir metabolite generation)” value with Human Cytochrome P450 [2] was “essentially ineffective first-pass inhibitors”. For the same molecule, the first-pass effect effectiveness result with Human Cytochrome P450 [1] is “ineffective”.
Consider `COc1c2ccoc2cc2oc(=O)ccc12` [bergapten, 5-methoxypsoralen], for which, in data set [3], the phototoxicity entry is “phototoxic”.
For `CC[C@H]1OC(=O)[C@H](C)[C@@H](O[C@H]2C[C@@](C)(OC)[C@@H](O)[C@H](C)O2)[C@H](C)[C@@H](O[C@@H]2O[C@H](C)C[C@H](N(C)C)[C@H]2O)[C@](C)(O)C[C@@H](C)C(=O)[C@H](C)[C@@H](O)[C@]1(C)O` [erythromycin], in the data set on first-pass effect [4], the “inhibition of the first-pass effect” value is listed as “inhibitors of the first-pass effect”.
For the molecule `OC(Cn1cncn1)(Cn1cncn1)c1ccc(F)cc1F` [fluconazole], the “inhibition of the first-pass effect” value with first-pass effect [4] is “inhibitors of the first-pass effect”.
In the case of `CC(C)=CCOc1c2occc2cc2ccc(=O)oc12` [imperatorin], in the data set with Human Cytochrome P450 [2] (FIG. 1, Protocol C', saquinavir, human hepatic S9), the “first-pass inhibition (saquinavir metabolite generation)” value is “essentially ineffective first-pass inhibitors”. For the same molecule, the first-pass effect effectiveness result in the data set on Human Cytochrome P450 [1] (determined herein) is reported as “ineffective”.
For `COc1c2ccoc2c(OC)c2oc(=O)ccc12` [isopimpinellin], the first-pass effect effectiveness result in the data set on Human Cytochrome P450 [1] (determined herein) is “ineffective”.
On to `CCC(C)n1ncn(-c2ccc(N3CCN(c4ccc(OCC5COC(Cn6cncn6)(c6ccc(Cl)cc6Cl)O5)cc4)CC3)cc2)c1=O` (stereo not drawn) [itraconazole], for which the “inhibition of the first-pass effect” value in the data set on first-pass effect [4] was “inhibitors of the first-pass effect”.
Turning to `CC(=O)N1CCN(c2ccc(OCC3COC(Cn4ccnc4)(c4ccc(Cl)cc4Cl)O3)cc2)CC1` (stereo not drawn) [ketoconazole], the “inhibition of the first-pass effect” value in the data set on first-pass effect [4] was “inhibitors of the first-pass effect”.
For the molecule `C/C(=C\COc1ccc2ccc(=O)oc2c1)CCC(O)C(C)(C)O` (stereo not drawn) [marmin], the first-pass effect effectiveness entry in the data set with Human Cytochrome P450 [1] is on record as “ineffective”.
Take `Clc1ccc(COC(Cn2ccnc2)c2ccc(Cl)cc2Cl)c(Cl)c1` (stereo not drawn) [miconazole]: the “inhibition of the first-pass effect” value with first-pass effect [4] is listed as “inhibitors of the first-pass effect”.
For `Cc1ncc2n1-c1ccc(Cl)cc1C(c1ccccc1F)=NC2` [midazolam], in the data set on first-pass effect [5], the “bioavailability in presence of inhibitors” value was “bioavailability is increased by inhibitors commonly given to humans”.
Consider `O=c1ccc2cc3ccoc3cc2o1` [psoralen], for which the “inhibition of cytochrome P450” value in the data set on cytochrome P450 is reported as “do inhibit cytochrome P450”. In addition, in data set [3], the phototoxicity entry is given as “phototoxic”. The first-pass effect effectiveness result in the data set with Human Cytochrome P450 [1] (determined herein) is reported as “ineffective”.
In the case of `Cc1nnc2n1-c1ccc(Cl)cc1C(c1ccccc1Cl)=NC2` [triazolam], the “bioavailability in presence of inhibitors” value in the data set on first-pass effect [5] is on record as “bioavailability is increased by inhibitors commonly given to humans”.
On to `CO[C@H]1C[C@H](O[C@H]2[C@H](C)[C@@H](O[C@@H]3O[C@H](C)C[C@H](N(C)C)[C@H]3OC(C)=O)[C@@H](C)C[C@@]3(CO3)C(=O)[C@H](C)[C@@H](OC(C)=O)[C@@H](C)[C@@H](C)OC(=O)[C@@H]2C)O[C@@H](C)[C@@H]1OC(C)=O` [troleandomycin], for which the “inhibition of the first-pass effect” value in the data set with first-pass effect [4] is recorded as “inhibitors of the first-pass effect”.
Take `COc1c2occc2cc2ccc(=O)oc12` [xanthotoxin, 8-methoxypsoralen]: the phototoxicity entry in data set [3] is given as “phototoxic”.
